Several values for one entry are separate records, joined by “and”; a condition that tells them apart may be missing. Identical values can stand only once. Like-named read-outs stand apart in the source and are kept apart here.

One data set deals with Hepatitis A (HAV). The data set is described as follows: Virus inactivation in whole blood. In kind it is cell-based. The settings on record: as a function of illumination energy.
Data set [1] deals with vesicular stomatitis virus (VSV). The class given is cell-based. The settings on record: as a function of illumination energy.
In the next data set the test system is canine parvovirus (CPV). Put plainly: Virus inactivation in whole blood. In kind it is cell-based. The settings on record: as a function of illumination energy.
The subject of data set [2] is white blood cells (WBCs). The settings on record: Allostimulation: treated stimulators.
The test system of data set [3] is white blood cells (WBCs). The data set is described as follows: WBC proliferation in response to anti-CD3/CD28 (thymidine incorporation). The settings on record: for % inhibition of proliferation: CD3/28. On the technique in general: Uptake of a labelled nucleoside into DNA is a usual measure of proliferation.
Data set [4] concerns white blood cells (WBCs). The data set is described as follows: WBC proliferation in response to PHA (thymidine incorporation).
A further data set deals with platelets. Put plainly: Platelet quality during storage. In kind it is cell-based. The method, then:
Platelet quality is assessed with measurements of pH, swirl, lactate production rate and glucose consumption rate on Days 1 and 5.
Platelets were separated from pathogen inactivated whole blood and markers of platelet quality were measured.

In data set [5] the test system is white blood cells (WBCs). The data set is described as follows: WBC functionality, all tested stimuli (summary statements). In kind it is cell-based.
Where [6] appears, read: over 5 days of storage at higher energy levels.

As for `Cc1cc2nc3c(=O)[nH]c(=O)nc-3n(C[C@H](O)[C@H](O)[C@H](O)CO)c2cc1C` [riboflavin, 7,8-dimethyl-10-ribityl isoalloxazine], the “log reduction of virus” value (with Hepatitis A (HAV); in data set [1]; with canine parvovirus (CPV)) was “increases linearly with respect to energy” throughout. Also, the “% inhibition of proliferation” value in the data set on white blood cells (WBCs) [2] (22 J/mlRBC) is listed as 93 ± 3%; in the data set on white blood cells (WBCs) [2] (33 J/mlRBC) it was 96 ± 2%; with white blood cells (WBCs) [2] (44 J/mlRBC) it was 95 ± 2%; in the data set on white blood cells (WBCs) [3] (22 J/mlRBC), 93 ± 2%; in the data set on white blood cells (WBCs) [3] (33 J/mlRBC) it was 99 ± 0%; in the data set on white blood cells (WBCs) [3] (44 J/mlRBC) it was 99 ± 0%. Besides, the “% inhibition of proliferation” value in the data set with white blood cells (WBCs) [4] (22 J/mlRBC) was determined as 98 ± 1%; with white blood cells (WBCs) [4] (33 J/mlRBC), 99 ± 1%; in the data set with white blood cells (WBCs) [4] (44 J/mlRBC), 99 ± 0%. For the same compound, the “induced proliferation of treated WBCs” value was “no detectable induced proliferation” in the data set with white blood cells (WBCs) [3] (plate-bound anti-CD3 plus anti-CD28 antibodies, 33 J/mlRBC and above, 3 days of incubation); “no detectable induced proliferation” in the data set with white blood cells (WBCs) [4] (33 J/mlRBC and above, 3 days of incubation). In addition, in the data set with platelets (setting [6]), the “platelet carbon dioxide production” value is “appears to decrease”. For the same compound, the platelet glucose consumption entry in the data set on platelets (setting [6]) is “appears to decrease”. In addition, the platelet lactate production result with platelets (setting [6]) is on record as “appears to increase”. Further, the platelet oxygen consumption result with platelets (setting [6]) is recorded as “appears to increase”. In addition, the “platelet pH” value in the data set on platelets (over 5 days of storage, treated and untreated) was “remains the same”. Also, the “inhibition of WBC proliferation / decrease of proliferative response” value with white blood cells (WBCs) [5] (all tested stimuli and antigen presentation, all energies tested, stimulated control vs stimulated treated cells) is 93-99% and > 90%. In addition, the “functional inactivation of white blood cells in whole blood” value with white blood cells (WBCs) [5] (riboflavin and light) is reported as “functionally inactivates the white blood cells”. In addition, in the data set with white blood cells (WBCs) [5] (riboflavin+UV light at all energies tested), the “proliferation in response to PHA, anti-CD3/CD28 and allogeneic stimulator cells” value is recorded as “inhibited proliferation”.
